{"source": "patent US11236120B2", "about": "“Azithromycin derivatives with epithelial barrier enhancement properties” (EpiEndo Pharmaceuticals ehf, priority 2015, dated 2022)", "key": {"[1]": {"system": "Staphylococcus aureus (ATCC29213)", "experiment": "Assay 1: antimicrobial broth dilution on microtiter plates, Staphylococcus aureus", "format": "cell-based", "conditions": "S. aureus (ATCC29213)", "procedure": "The antimicrobial activity of each Example compound was investigated. The Minimal Inhibitory Concentration (MIC—the minimal dose required to inhibit bacterial growth) and the Minimal Bactericidal Concentration (MBC—the minimal dose required to kill bacteria) were measured for each compound for Streptococcus pneumoniae (ATCC49619), Staphylococcus aureus (ATCC29213), Bacillus megaterium (BM-11) and Escherichia coli (D-21) using an antimicrobial broth dilution method on microtiter plates. The Minimal Inhibitory Concentration (MIC) was also measured for each example compound and azithromycin with Mycobacterium avium complex (MAC). […]\nThe Minimal Inhibitory Concentration (MIC—the minimal dose required to inhibit bacterial growth) and the Minimal Bactericidal Concentration (MBC—the minimal dose required to kill bacteria) were measured for each compound for Streptococcus pneumoniae (ATCC49619), Staphylococcus aureus (ATCC29213), Bacillus megaterium (BM-11) and Escherichia coli (D-21) using an antimicrobial broth dilution method on 96 well microtiter plates. […]\nAfter addition of the bacterial solution, the plates were incubated at 35° C. for 18 h. The bacterial growth of each well was then recorded and then the Minimal Inhibitory Concentration (MIC) and Minimal Bactericidal Concentration ([…]) were determined."}, "[2]": {"experiment": "Stability in human plasma", "format": "in vitro ADME", "conditions": "room temperature", "procedure": "Stability in Mouse and Human Plasma\nThe stability of the compounds in mouse and human plasma was performed using protein precipitation as sample clean-up and HPLC-MS detection. The plasma stability studies of the compounds was performed at room temperature for up to 4 hours. A stock solution of […] in DMSO was prepared for each compound. For the plasma stability samples, 100 μL of the stock solution was diluted with 3.9 mL of either mouse or human plasma to a final concentration of […]. The plasma was left to equilibrate for 10 minutes at room temperature before the first analysis. For each analyzed time point ([…]) a 100 μL aliquot of the plasma was removed and protein precipitation (PPT) was performed on the aliquot by adding 900 μL of (ACN:DMSO) 95:5. The precipitated sample was shaken for 60 seconds and then centrifuged. The supernatant was transferred to an HPLC vial and analyzed using HPLC-MS. The chromatographic signal area of the samples at the different time points were then compared against each other, by setting the initial analysis at t=0 min as 100% and then calculating the %-value for each subsequent time point.\nThe chromatographic separation was performed on a Waters HPLC-MS system using a 50×2.1 mm×Bridge C18 column and a gradient elution of Water with 0.1% formic acid and acetonitrile with 0.1% formic acid. The analytes were analyzed in positive electro-spray mode using the (M+H)^+ in single ion recording."}, "[3]": {"system": "barrier integrity in the lungs of mice under sulphur dioxide insult", "experiment": "Barrier integrity enhancement in the lung: HSA leakage into BAL after sulphur dioxide insult", "format": "in vivo", "procedure": "The effect of compounds of the invention on maintenance of barrier integrity in the lungs of mice under sulphur dioxide insult was investigated.\n1. 15 female mice were randomised into 3 groups of 5 mice. The three groups were: • a) Control group • b) Azithromycin treatment group • c) Investigational compound treatment group\n2. The mice were pre-treated for three days with: • a) Placebo (Phosphate buffered saline—PBS) given at a dose of 10 mg/kg in an intravenous injection of 100 μl three times per week. • b) Azithromycin: given at a dose of 10 mg/kg in an intravenous injection of 100 μl three times per week. • c) The compound of Example 2: given at a dose of 10 mg/kg in an intravenous injection of 100 μl three times per week.\n3. One mouse in each group was set to one side as a control. Four mice were then exposed to sulphur dioxide gas at a concentration of 200 ppm in air for a period of 60 minutes. The mice were in a cage that was inserted into a 45 L treatment box with a removable lid, a gas feed line and a gas exhaust vent. […] The gas was premixed from bottled air and bottled 200 ppm SO2 in a first box and then fed into the treatment box. The level of SO2 being fed into the treatment box can be varied by adjusting the relative flow of air and SO2 from the two source cylinders. As the sulphur dioxide concentration in this experiment was 200 ppm, it was used neat, with no additional air being mixed with it. The mice had access to food and water for the duration of the treatment.\n4. 24 hours after the end of the treatment, 1 mg of human serum albumin (HSA) in 100 μl saline was injected into the tail vein of each mouse, and fluorescent dextrans (FDs) were injected into the airways. The mice were then kept sedated for 90 minutes.\n5. After 90 minutes, the mice were sacrificed via exsanguination. Plasma and bronchoalveolar lavage (BAL) were collected and the lungs were processed for paraffin embedding.\n6. The level of HSA in the BAL was quantified by ELISA. The ELISA test used was the one commercially available from abcam (Human Serum Albumin kit ab179887). In line with the kit manufacturer's instructions, absorbance at […] was measured. Fluorescent dextrans are quantified using a fluorescent plate reader.\nThe level of HSA that leaks into the lungs, as found in the BAL, is a measure of the integrity of the lung epithelial barrier.\nIn the placebo group, there were experimental difficulties with two of the four mice; in the Azithromycin group, there were experimental difficulties with one of the four mice; and in the investigational compound group, there were experimental difficulties with two of the four mice. Therefore, results were obtained from two mice in each of the placebo and investigational compound groups, and from three mice in the Azithromycin group."}, "[4]": {"system": "epithelial cells in vitro ALI culture", "conditions": "cited from earlier work"}}, "note": "Entries after “also recorded” stand apart in the source; their conditions may differ."}
{"molecule": "CC[C@H]1OC(=O)[C@H](C)[C@@H](O[C@H]2C[C@@](C)(OC)[C@@H](O)[C@H](C)O2)[C@H](C)[C@@H](O[C@@H]2O[C@H](C)C[C@H](N(C)C)[C@H]2O)[C@](C)(O)C[C@@H](C)CN(C)[C@H](C)[C@@H](O)[C@]1(C)O", "note": "[Azithromycin, (2R,3S,4R,5R,8R,10R,11R,12S,13S,14R)-11-[(2S,3R,4S,6R)-4-(dimethylamino)-3-hydroxy-6-methyl-tetrahydropyran-2-yl]oxy-2-ethyl-3,4,10-trihydroxy-13-[(2R,4R,5S,6S)-5-hydroxy-4-methoxy-4,6-dimethyl-tetrahydropyran-2-yl]oxy-3,5,6,8,10,12,14-heptamethyl-1-oxa-6-azacyclopentadecan-15-one]", "values": [{"measurement": "MBC", "setting": "[1]", "result": 8, "unit": "µg/mL"}, {"measurement": "MIC", "setting": "[1]", "result": 2, "unit": "µg/mL"}, {"measurement": "Degradation in Human Plasma at RT", "setting": "[2]", "result": 6, "unit": "% per hour"}, {"measurement": "HSA level - absorbance at 600 nm", "setting": "[3]; HSA in BAL by ELISA, mice, 10 mg/kg intravenous, 200 ppm SO2 for 60 minutes", "result": "0.346 ± 0.031"}, {"measurement": "leakage of HSA into the lung following SO2 insult", "setting": "[3]; compared with control, FIG. 1", "result": "reduced compared with the control; also recorded: reduced compared with a control"}, {"measurement": "HSA level - absorbance at 600 nm relative to control", "setting": "[3]; relative to PBS control, mice, 10 mg/kg intravenous, 200 ppm SO2 for 60 minutes", "result": "0.593 ± 0.053"}, {"measurement": "effect on transepithelial resistance (TER) and cellular processing of tight junctions", "setting": "[4]", "result": "increasing transepithelial resistance"}]}
